According to paper PMC7794549, “A capsaicinoid-based soft drug, AG1529, for attenuating TRPV1-mediated histaminergic and inflammatory sensory neuron excitability” (Scientific Reports, 2021):

Assays:
Type in all cases: cell-based
hTRPA1 [1] = biological target: T1, hTRPA1 (Homo sapiens, UniProt O75762); assay: whole-cell patch-clamp, AITC-evoked currents in HEK293 cells; % inhibition at […]
T1 construct: gene TRPA1

hTRPV1 = biological target: T2, hTRPV1 (Homo sapiens, UniProt Q8NER1); assay: whole-cell patch-clamp, capsaicin-evoked currents in HEK293 cells expressing hTRPV1
T2 construct: gene TRPV1
T2 sequence (Q8NER1 whole entry): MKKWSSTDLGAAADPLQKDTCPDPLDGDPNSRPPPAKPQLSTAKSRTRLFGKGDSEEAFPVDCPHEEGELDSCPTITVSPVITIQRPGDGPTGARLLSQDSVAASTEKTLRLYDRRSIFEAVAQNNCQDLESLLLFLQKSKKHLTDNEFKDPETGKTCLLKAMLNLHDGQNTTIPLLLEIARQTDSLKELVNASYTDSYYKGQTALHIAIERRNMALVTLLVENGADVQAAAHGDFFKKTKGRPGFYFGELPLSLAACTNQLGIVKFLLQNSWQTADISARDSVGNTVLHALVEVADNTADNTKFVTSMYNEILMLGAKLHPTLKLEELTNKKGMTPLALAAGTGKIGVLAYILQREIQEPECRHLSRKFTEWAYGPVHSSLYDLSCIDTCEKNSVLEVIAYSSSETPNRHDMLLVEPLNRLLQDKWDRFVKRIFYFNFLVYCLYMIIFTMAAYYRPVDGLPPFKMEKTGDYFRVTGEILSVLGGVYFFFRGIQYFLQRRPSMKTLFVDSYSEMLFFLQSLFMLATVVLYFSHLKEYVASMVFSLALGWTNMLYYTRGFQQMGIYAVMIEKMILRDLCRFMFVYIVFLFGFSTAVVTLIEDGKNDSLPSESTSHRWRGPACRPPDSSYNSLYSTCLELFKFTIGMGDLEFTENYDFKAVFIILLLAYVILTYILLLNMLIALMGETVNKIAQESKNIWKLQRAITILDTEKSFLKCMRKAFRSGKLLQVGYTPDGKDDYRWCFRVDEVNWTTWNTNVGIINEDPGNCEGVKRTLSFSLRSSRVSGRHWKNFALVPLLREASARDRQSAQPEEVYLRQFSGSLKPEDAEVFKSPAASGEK

hTRPM8 = biological target: T3, hTRPM8 (Homo sapiens, UniProt Q7Z2W7); assay: whole-cell patch-clamp, menthol-evoked currents in HEK293 cells; % block at […]
T3 construct: gene TRPM8
T3 sequence (Q7Z2W7 whole entry): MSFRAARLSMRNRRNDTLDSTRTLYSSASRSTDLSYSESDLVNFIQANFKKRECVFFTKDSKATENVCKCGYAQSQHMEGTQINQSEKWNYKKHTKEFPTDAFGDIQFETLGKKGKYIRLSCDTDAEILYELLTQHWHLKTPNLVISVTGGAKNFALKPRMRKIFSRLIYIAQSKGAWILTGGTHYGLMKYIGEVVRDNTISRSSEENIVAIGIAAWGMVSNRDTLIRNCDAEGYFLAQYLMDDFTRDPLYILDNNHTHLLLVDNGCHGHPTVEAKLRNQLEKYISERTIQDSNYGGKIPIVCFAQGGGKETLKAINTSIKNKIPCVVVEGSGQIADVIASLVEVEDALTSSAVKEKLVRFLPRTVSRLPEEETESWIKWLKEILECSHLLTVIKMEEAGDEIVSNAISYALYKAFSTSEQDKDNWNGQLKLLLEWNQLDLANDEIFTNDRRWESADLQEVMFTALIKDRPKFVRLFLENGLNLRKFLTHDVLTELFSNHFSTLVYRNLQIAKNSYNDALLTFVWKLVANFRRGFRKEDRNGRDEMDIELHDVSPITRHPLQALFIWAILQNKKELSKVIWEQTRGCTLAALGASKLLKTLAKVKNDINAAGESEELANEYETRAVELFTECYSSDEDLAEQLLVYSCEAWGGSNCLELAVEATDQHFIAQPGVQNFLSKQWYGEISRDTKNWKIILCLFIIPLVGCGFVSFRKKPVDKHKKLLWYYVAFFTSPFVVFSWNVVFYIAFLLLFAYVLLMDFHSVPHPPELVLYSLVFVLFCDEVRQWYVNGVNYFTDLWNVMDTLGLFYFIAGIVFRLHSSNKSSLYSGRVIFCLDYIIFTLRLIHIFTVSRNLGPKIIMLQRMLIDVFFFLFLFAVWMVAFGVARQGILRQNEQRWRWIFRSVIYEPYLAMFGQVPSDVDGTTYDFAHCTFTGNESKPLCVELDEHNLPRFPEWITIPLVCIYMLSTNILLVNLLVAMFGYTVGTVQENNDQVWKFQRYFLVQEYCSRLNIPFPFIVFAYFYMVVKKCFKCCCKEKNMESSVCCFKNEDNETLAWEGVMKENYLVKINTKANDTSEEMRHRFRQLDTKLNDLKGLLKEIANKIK

rTRPV1 = biological target: T4, rTRPV1 (Rattus norvegicus, UniProt O35433); assay: Ca2+ microfluorography
T4 construct: gene Trpv1
T4 sequence (O35433 whole entry): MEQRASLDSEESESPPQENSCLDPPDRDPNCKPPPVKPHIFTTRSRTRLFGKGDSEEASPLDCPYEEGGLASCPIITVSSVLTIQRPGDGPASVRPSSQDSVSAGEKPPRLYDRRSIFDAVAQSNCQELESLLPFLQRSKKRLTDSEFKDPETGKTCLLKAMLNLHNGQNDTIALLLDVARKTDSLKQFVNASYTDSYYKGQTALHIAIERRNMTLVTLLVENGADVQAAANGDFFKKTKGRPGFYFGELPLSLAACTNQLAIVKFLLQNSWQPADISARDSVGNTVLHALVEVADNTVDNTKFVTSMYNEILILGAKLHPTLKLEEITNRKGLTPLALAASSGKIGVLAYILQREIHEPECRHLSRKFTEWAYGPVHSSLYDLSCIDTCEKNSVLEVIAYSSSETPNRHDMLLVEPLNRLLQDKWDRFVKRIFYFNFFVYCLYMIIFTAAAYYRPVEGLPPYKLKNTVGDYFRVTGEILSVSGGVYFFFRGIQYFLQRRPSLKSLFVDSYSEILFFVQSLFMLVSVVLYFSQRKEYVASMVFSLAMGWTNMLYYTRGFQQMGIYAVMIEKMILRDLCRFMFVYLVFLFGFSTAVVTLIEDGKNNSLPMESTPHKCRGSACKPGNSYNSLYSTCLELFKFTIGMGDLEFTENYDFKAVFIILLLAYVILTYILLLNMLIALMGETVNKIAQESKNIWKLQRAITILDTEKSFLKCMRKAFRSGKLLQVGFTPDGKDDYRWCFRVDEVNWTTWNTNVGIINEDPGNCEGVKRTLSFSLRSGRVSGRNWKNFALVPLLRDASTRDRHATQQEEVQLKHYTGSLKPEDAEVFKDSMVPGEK

hTRPA1 [2] = biological target: T1, hTRPA1; assay: whole-cell patch-clamp, AITC-evoked currents in HEK293 cells, […]

T1 sequence (O75762 whole entry): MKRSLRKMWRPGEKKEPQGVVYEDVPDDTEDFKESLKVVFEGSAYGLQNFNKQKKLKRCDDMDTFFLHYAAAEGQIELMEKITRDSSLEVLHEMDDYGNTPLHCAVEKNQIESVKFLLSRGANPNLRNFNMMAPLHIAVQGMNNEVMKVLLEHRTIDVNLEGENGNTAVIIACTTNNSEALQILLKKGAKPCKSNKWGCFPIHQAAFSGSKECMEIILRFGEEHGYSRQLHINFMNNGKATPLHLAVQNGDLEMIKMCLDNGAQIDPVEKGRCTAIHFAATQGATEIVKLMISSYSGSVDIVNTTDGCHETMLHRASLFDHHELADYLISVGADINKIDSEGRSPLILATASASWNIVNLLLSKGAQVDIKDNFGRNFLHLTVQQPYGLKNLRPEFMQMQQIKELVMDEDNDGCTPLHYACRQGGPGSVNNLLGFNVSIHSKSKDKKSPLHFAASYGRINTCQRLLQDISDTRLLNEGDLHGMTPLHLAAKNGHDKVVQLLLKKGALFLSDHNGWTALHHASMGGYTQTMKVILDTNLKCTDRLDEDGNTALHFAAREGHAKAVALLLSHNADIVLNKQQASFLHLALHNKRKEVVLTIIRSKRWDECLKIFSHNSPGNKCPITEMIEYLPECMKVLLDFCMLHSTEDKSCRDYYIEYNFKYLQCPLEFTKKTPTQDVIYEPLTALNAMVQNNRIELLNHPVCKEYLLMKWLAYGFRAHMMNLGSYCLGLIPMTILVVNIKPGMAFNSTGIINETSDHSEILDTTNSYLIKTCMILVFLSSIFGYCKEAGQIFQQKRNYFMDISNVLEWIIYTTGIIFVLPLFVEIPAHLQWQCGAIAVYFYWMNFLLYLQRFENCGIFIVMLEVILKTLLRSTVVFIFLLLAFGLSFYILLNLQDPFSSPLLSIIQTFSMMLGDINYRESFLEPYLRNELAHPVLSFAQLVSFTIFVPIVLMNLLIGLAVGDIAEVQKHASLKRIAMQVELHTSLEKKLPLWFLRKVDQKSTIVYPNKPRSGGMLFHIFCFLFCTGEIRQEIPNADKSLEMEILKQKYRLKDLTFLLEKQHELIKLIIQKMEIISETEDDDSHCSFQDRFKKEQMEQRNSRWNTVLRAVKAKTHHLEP

Compound | inhibition at 10 µM (hTRPA1 [1]) [%] | IC50 (hTRPV1) [nM] | % (hTRPM8) | IC50 (rTRPV1) [nM] | whole-cell patch-clamp, AITC-evoked currents in HEK293 cells, 5 μM (hTRPA1 [2])
CCCCCCCCCCCC(=O)OCC(=O)NCc1cc(OC)c(O)cc1I [AG1529, 2-((4-hydroxy-2-iodo-5-methoxybenzyl)amino)-2-oxoethyl dodecanoate] | ~40 | 900 ± 500 | ~ 40% | 900 ± 200 | –
CC(C)c1ccc(NC(=O)Cn2cnc3c2c(=O)n(C)c(=O)n3C)cc1 [HC030031, 1,2,3,6-Tetrahydro-1,3-dimethyl-N-[4-(1-methylethyl)phenyl]-2,6-dioxo-7H-purine-7-acetamide] | – | – | – | – | a reference TRPA1 antagonist, completely abrogated AITC-evoked ionic currents
